Laboratory results published in patent publication US20110038829A1, “METHODS AND MATERIALS FOR TREATING DIARRHEA” (MAYO FOUNDATION FOR MEDICAL EDUCATION AND RESEARCH, priority 2009, published 2011).

Columns and labels:
healthy volunteers [1] = test: Daily stool diaries (bowel function), CDC study; assay type: in vivo, human; conditions: for Ease of passage (scale1-7) / Stool consistency by Bristol Stool Form Scale / Stool frequency per day: N = 20, mean ± SEM
Procedure: 60 patients (mean age 38.7 years, 43 female) were enrolled to the study. Three groups (n=20 each) were randomized to one oral capsule daily containing placebo, 500 mg, or 1000 mg CDC, each for a period of 4 days. Gastrointestinal (GI) and colonic transit was conducted by a scintigraphic method (Burton et al., J. Nucl. Med., 38:1807-1810 (1997) and Cremonini et al., Aliment Pharmacol. Ther., 16:1781-1790 (2002)) during the last 48 hours of drug ingestion. All participants completed bowel function diaries that documented the time of each bowel movement, stool consistency (Bristol Stool Form Scale), the ease of passage (ranging from 1=“manual disimpaction” to 7=“incontinence”), and completeness of evacuation (1=“yes” and 0=“no”). In the first study, patients recorded diaries during at least 3 days of the baseline period and the 4 days of treatment. The diaries were recorded for at least 3 days of the baseline period and during the entire treatment period of the second study.

healthy volunteers [2] = test: Scintigraphic gastrointestinal and colonic transit, CDC study; assay type: in vivo, human; conditions: for AC t1/2 (ascending colon emptying) / CF 6 (colonic filling at 6 hours) / GC 4 (colonic geometric center) / GC 24 (colonic geometric center at 24 hours) / GC 48 (colonic geometric center at 48 hours) / GE t1/2: N = 20, mean ± SEM
Procedure: A double-blind, placebo-controlled, parallel-group, randomized study was conducted to evaluate the effects of oral sodium chenodeoxycholate (CDC) or placebo, once daily for 4 days, in healthy volunteers. In a second trial, oral colesevelam hydrochloride or placebo were administered for 12-14 days in patients with diarrhea-predominant irritable bowel syndrome (IBS-D). The study was approved by a review board and all participants signed informed consent. In both studies, allocation was concealed from the study investigators. In the first trial, participants were randomized to placebo, CDC 500 mg, or 1000 mg (20 per group). Sodium CDC (unconjugated) was purchased from Calbiochem (EMD Biosciences Inc., San Diego, Calif. 92121), and the Mayo pharmacy prepared identical placebo and CDC capsules, all of which were coated with the pH sensitive polymer, methacrylate (Eudragit® S-100, Rohm Pharmaceuticals, Darmstadt D-64293, Germany). The latter dissolves at the neutral pH found in the distal ileum and was used to ensure ileocolonic delivery of the CDC or placebo. All participants were screened for idiopathic bile acid malabsorption (BAM) with fasting serum 7alpha-hydroxy-4-cholesten-3-one (7αC4). 60 patients (mean age 38.7 years, 43 female) were enrolled to the study. Three groups (n=20 each) were randomized to one oral capsule daily containing placebo, 500 mg, or 1000 mg CDC, each for a period of 4 days. Gastrointestinal (GI) and colonic transit was conducted by a scintigraphic method (Burton et al., J. Nucl. Med., 38:1807-1810 (1997) and Cremonini et al., Aliment Pharmacol. Ther., 16:1781-1790 (2002)) during the last 48 hours of drug ingestion. An adaptation of an established scintigraphic method was used to measure gastrointestinal and colonic transit (Burton et al., J. Nucl. Med., 38:1807-1810 (1997) and Cremonini et al., Aliment Pharmacol. Ther., 16:1781-1790 (2002)). Patients with IBS-D had baseline measurement of colonic transit since this is known to be a significant covariate in treatment responses. The primary endpoints were the colonic geometric center (GC) at 24 hours (GC 24) and ascending colon (AC) emptying t1/2. […] The capsule was ingested following an overnight fast. After the capsule emptied from the stomach, a 99 mTc-sulfur colloid radiolabeled meal was ingested. It consisted of two scrambled eggs, one slice of whole wheat bread, and one glass of whole milk. This meal allowed measurement of gastric and small bowel transit. Subjects ingested standardized meals for lunch and dinner at 4 and 8 hours after the radiolabeled meal, respectively. Abdominal scans were obtained every hour for the first 6 hours (the first 4 hours for the assessment of gastric emptying) and at 8, 24, and 48 hours after ingestion of the ^111In capsule. The counts in the stomach and each of four colonic regions, ascending, transverse, descending, and combined sigmoid and rectum, were quantitated with a variable region of interest program. Counts were corrected for isotope decay, tissue attenuation, and downscatter of ^111In counts in the 99 mTc window. Gastric emptying t1/2 is a measure of the time for 50% of the radiolabeled meal (identifiable by radiolabeled tracer) to empty from the stomach. Colonic filling at 6 hours, or the proportion of the radiolabeled meal to have reached the colon at 6 hours, is an indirect measurement of small bowel transit time. Overall colonic transit was summarized as the colonic geometric center (GC) at specified times. The GC is the weighted average of counts in the different colonic regions (ascending (AC), transverse (TC), descending (DC), rectosigmoid (RS)) and stool, respectively 1 to 5. At any time, the proportion of counts in each colonic region is multiplied by its weighting factor as follows: (%AC×1+%TC×2+%DC×3+%RS×4+%stool×5)/100=GC Thus, a higher GC reflects a faster colonic transit. Ascending colon emptying was summarized by the t1/2 calculated by linear interpolation of values on the AC emptying curve.

healthy volunteers [3] = test system: healthy volunteers; design: species or system human; conditions: in vivo
Procedure: An independent statistician, who otherwise was not involved in the study, generated the randomization codes, and the allocation was concealed. All clinical and laboratory study personnel were blinded throughout the study until all data were locked and analyzed. Clinical safety monitoring was conducted by the study investigators throughout the study. 60 patients (mean age 38.7 years, 43 female) were enrolled to the study. Three groups (n=20 each) were randomized to one oral capsule daily containing placebo, 500 mg, or 1000 mg CDC, each for a period of 4 days. Gastrointestinal (GI) and colonic transit was conducted by a scintigraphic method (Burton et al., J. Nucl. Med., 38:1807-1810 (1997) and Cremonini et al., Aliment Pharmacol. Ther., 16:1781-1790 (2002)) during the last 48 hours of drug ingestion.

[4] = CDC 500 mg once daily for 4 days
[5] = CDC 1000 mg once daily for 4 days

C[C@H](CCC(=O)[O-])[C@H]1CC[C@H]2[C@@H]3[C@H](O)C[C@@H]4C[C@H](O)CC[C@]4(C)[C@H]3CC[C@]12C.[Na+] [CDC, sodium chenodeoxycholate]
Ease of passage (scale1-7) (healthy volunteers [1]; [4]): 4.1 ± 0.06
Stool consistency by Bristol Stool Form Scale (healthy volunteers [1]; [4]): 4.29 ± 0.19
Stool frequency per day (healthy volunteers [1]; [4]): 1.50 ± 0.18 per day
Effect on sense of complete evacuation (in words) (healthy volunteers [1]; CDC 500 mg or 1000 mg vs placebo, p=0.02): significant overall treatment effects
Ease of passage (scale1-7) (healthy volunteers [1]; [5]): 4.3 ± 0.06
Stool consistency by Bristol Stool Form Scale (healthy volunteers [1]; [5]): 4.80 ± 0.15
Stool frequency per day (healthy volunteers [1]; [5]): 2.01 ± 0.15 per day
Effect on stool form/consistency (in words) (healthy volunteers [1]; FIG. 3, p<0.0001): more liquid consistency stool
Effect on stool frequency (in words) (healthy volunteers [1]; FIG. 3, p<0.001): increase in stool frequency
AC t1/2 (ascending colon emptying) (healthy volunteers [2]; [4]): 12.1 ± 2.1 h
CF 6 (colonic filling at 6 hours) (healthy volunteers [2]; [4]): 49.6 ± 7.0%
GC 4 (colonic geometric center) (healthy volunteers [2]; [4]): 0.87 ± 0.18
GC 24 (colonic geometric center at 24 hours) (healthy volunteers [2]; [4]): 2.80 ± 0.27
GC 48 (colonic geometric center at 48 hours) (healthy volunteers [2]; [4]): 4.10 ± 0.21
GE t1/2 (healthy volunteers [2]; [4]): 126.9 ± 5.3 min
Treatment effect on colonic filling at 6 hours (in words) (healthy volunteers [2]; CDC 500 mg or 1000 mg vs placebo): not detected
AC t1/2 (ascending colon emptying) (healthy volunteers [2]; [5]): 10.7 ± 1.9 h
CF 6 (colonic filling at 6 hours) (healthy volunteers [2]; [5]): 46.0 ± 7.1%
GC 4 (colonic geometric center) (healthy volunteers [2]; [5]): 1.27 ± 0.33
GC 24 (colonic geometric center at 24 hours) (healthy volunteers [2]; [5]): 3.76 ± 0.30
GC 48 (colonic geometric center at 48 hours) (healthy volunteers [2]; [5]): 4.92 ± 0.05
GE t1/2 (healthy volunteers [2]; [5]): 143.0 ± 14.1 min
Effect on colonic transit (GC) at 24 and 48 hours (in words) (healthy volunteers [2]; FIG. 3, 1000 mg p<0.0001, 500 mg p<0.01 vs placebo): overall acceleration of colonic transit
Adverse event: headache, rate (healthy volunteers [3]): 20-25%
Adverse events: gas, bloating and nausea, participants (healthy volunteers [3]): 5-20%
